Where two headings read alike, the source gives them in different places.
Tested on: HIV-1 (NL4-3 strain)
Experiment: Assay for inhibition of HIV replication (ViKinG; infected MT4-GFP cells)
Type: cell-based
Description: Assay for inhibition of HIV replication
MT4-GFP cells (250,000 cells/ml) were bulk-infected with HIV-1 (NL4-3 strain) at low multiplicity of infection (MOI) in RPMI+10% FBS for 24 hours. […] Test compounds were serial-diluted in DMSO on ECHO. The infected MT4-GFP cells were added to a 384-well poly-D-lysine coated black plate with clear bottom in which the diluted test compounds were placed. The cells were seeded at 8,000 cells per well and the final DMSO concentration was 0.4%. The infected cells (Green GFP cells) were quantified at both 24 and 48 hours post incubation using Acumen eX3. Viral reproductive ratio (R0) was determined using the number of infected cells at 48 hours divided by the number of infected cells at 24 hours. Percent viral growth inhibition was calculated by [1−(R−Rtripledrug)/(RDMSO−Rtripledrug)]*100. Compound potency IP or IC50 was determined by a 4-parameter dose response curve analysis.

[1] = MT4-GFP cells infected with HIV-1 NL4-3, 10% normal human serum (NHS), read-out: ViKinG IP (nM) with 10% NHS
[2] = Human immunodeficiency virus 1, NL43, MT4-GFP cells infected with HIV-1 NL4-3, 0% normal human serum (NHS), read-out: ViKinG IP (nM) with 0% NHS
[3] = Human immunodeficiency virus 1, NL43, MT4-GFP cells infected with HIV-1 NL4-3, 100% normal human serum (NHS), read-out: ViKinG IP (nM) with 100% NHS
[4] = MT4-GFP cells infected with HIV-1 NL4-3, 100% normal human serum (NHS), read-out: ViKinG IP (nM) with 100% NHS
[5] = MT4-GFP cells infected with HIV-1 NL4-3, 0% normal human serum (NHS), read-out: ViKinG IP (nM) with 0% NHS
[6] = Human immunodeficiency virus 1, NL43, MT4-GFP cells infected with HIV-1 NL4-3, 10% normal human serum (NHS), read-out: ViKinG IP (nM) with 10% NHS

SMILES | IC50 [1] [nM] | IC50 [2] [nM] | IC50 [3] [nM] | also measured
CN(C)C(=O)C1CCC2(CC1)N(C)C(=O)c1c(O)c(=O)c(-c3nnc(Cc4ccc(F)cc4)s3)cn1N2C (stereo not drawn) [Compound 145] | 102 | – | – | –
C[C@H]1n2cc(C(=O)NCc3ccc(F)cc3F)c(=O)c(O)c2C(=O)N(C)C12CC2 [Compound 175] | – | 1.54 | 37.1 | –
CN1C(=O)c2c(O)c(=O)c(-c3nnc(Cc4ccc(F)cc4F)s3)cn2N(C)C12CCC(C(=O)N1CC(F)(F)C1)CC2 (stereo not drawn) [Compound 119] | 35.6 | 5.26 | – | IC50 [4]: 189 nM
CN1n2cc(-c3nnc(Cc4ccc(F)cc4F)s3)c(=O)c(O)c2C(=O)NC12CC[C@H]1C[C@H]12 (mixture of isomers) [Compound 201] | – | 3.82 | 575 | –
CN1C(=O)c2c(O)c(=O)c(-c3nnc(Cc4ccc(F)cc4F)s3)cn2N(C)C12CCC(C(=O)N1CCCC1)CC2 (stereo not drawn) [Compound 115] | 39.5 | – | – | IC50 [5]: 16.4 nM
CCN1C(=O)c2c(O)c(=O)c(-c3nnc(Cc4ccc(F)cc4F)s3)cn2N(C)C12CCC(F)(F)CC2 [Compound 56] | – | 12 | 1980 | –
CN1C(=O)c2c(O)c(=O)c(-c3nnc(Cc4ccc(F)cc4F)s3)cn2N(C)C12CCC(C(=O)O)CC2 (stereo not drawn) [Compound 89] | 322 | – | – | IC50 [5]: 44.9 nM
CCN1C(=O)c2c(O)c(=O)c(-c3nnc(Cc4ccc(F)cc4)s3)cn2N(CCOC)C1C (stereo not drawn) [Compound 169] | – | – | 1510 | IC50 [6]: 90 nM
CN1C(=O)c2c(O)c(=O)c(-c3nnc(Cc4ccc(F)cc4F)s3)cn2N(C)C12CCC(OC(=O)C(Cl)Cl)CC2 (stereo not drawn) [Compound 68] | – | – | – | IC50 [6]: 10.5 nM
CCN1C(=O)c2c(O)c(=O)c(-c3nnc(Cc4ccc(F)cc4)s3)cn2N(C)C1(C)C [Compound 5] | – | – | 936 | IC50 [6]: 31 nM
CN(C)CCNC(=O)C1CCC2(CC1)N(C)C(=O)c1c(O)c(=O)c(-c3nnc(Cc4ccc(F)cc4F)s3)cn1N2C (stereo not drawn) [Compound 125] | 543 | – | – | IC50 [5]: 374 nM
CCN1C(=O)c2c(O)c(=O)c(-c3nnc(Cc4ccc(F)cc4F)s3)cn2N(C)C12CCC(CC(=O)OC)CC2 (stereo not drawn) [Compound 21] | – | – | – | IC50 [6]: 31.8 nM
CN1C(=O)c2c(O)c(=O)c(-c3nnc(Cc4ccc(F)cc4F)s3)cn2N(C)C12CC[C@@H]1C[C@@]12CO (stereo partly drawn) [Compound 195] | – | 2.02 | – | IC50 [4]: 190 nM
CN1C(=O)c2c(O)c(=O)c(-c3nnc(Cc4ccc(F)cc4F)s3)cn2N(C)C12CCCc1occc12 (racemic) [Compound 78] | – | 10.7 | – | IC50 [6]: 93 nM
CCOP(=O)(OCC)C1CCC2(C1)N(CC)C(=O)c1c(O)c(=O)c(-c3nnc(Cc4ccc(F)cc4F)s3)cn1N2C (stereo not drawn) [Compound 38] | 95.4 | – | – | –
CN1C(=O)c2c(O)c(=O)c(-c3nnc(Cc4ccc(F)cc4F)s3)cn2N(C)C12CCC(C(=O)NC1CC1)C2 (stereo not drawn) [Compound 141] | – | 59.7 | 1990 | –
C[C@@H]1n2cc(C(=O)NCc3ccc(F)cc3F)c(=O)c(O)c2C(=O)N(C)C12CC2 [Compound 176] | – | 2.12 | 39 | –
O=C1NC2(CCC2)Cn2cc(-c3nnc(Cc4ccc(F)cc4F)s3)c(=O)c(O)c21 [Compound 210] | – | 4.11 | – | IC50 [6]: 68.4 nM
COC1CCC2(CC1)Cn1cc(-c3nnc(Cc4ccc(F)cc4F)s3)c(=O)c(O)c1C(=O)N2C (stereo not drawn) [Compound 212] | – | 3.49 | – | IC50 [4]: 90.7 nM
COCCN1C(=O)c2c(O)c(=O)c(-c3nnc(Cc4ccc(F)cc4F)s3)cn2N(C)C12CCC2 [Compound 173] | – | 7 | 526 | –
COC1(C)CCC2(CC1)N(C)C(=O)c1c(O)c(=O)c(-c3nnc(Cc4ccc(F)cc4F)s3)cn1N2C (stereo not drawn) [Compound 73] | 11.9 | – | – | IC50 [5]: 7.04 nM
CCN1C(=O)c2c(O)c(=O)c(-c3nnc(Cc4ccc(F)cc4F)s3)cn2N(C)C12CCC(OCCOCCOC)CC2 (stereo not drawn) [Compound 66] | – | 12 | 93.9 | –
CCN1C(=O)c2c(O)c(=O)c(-c3nnc(Cc4ccc(F)cc4F)s3)cn2N(C)C12CCCCC(=O)C2 (racemic) [Compound 44] | – | 4.36 | 240 | –
CN1C(=O)c2c(O)c(=O)c(-c3nnc(Cc4ccc(F)cc4F)s3)cn2N(C)C12CCC(C(=O)NCc1cnoc1)CC2 (stereo not drawn) [Compound 128] | 101 | – | – | IC50 [5]: 81.8 nM
CCN1C(=O)c2c(O)c(=O)c(-c3nnc(Cc4ccc(F)cc4F)s3)cn2N(C)C12CCC(OC)CC2 (stereo not drawn) [Compound 27] | 11.5 | – | – | IC50 [5]: 9.24 nM; IC50 [4]: 191 nM

— patent publication US9714243B2, “4-pyridinonetriazine derivatives as HIV integrase inhibitors” (Merck Sharp & Dohme Corp., priority 2012, dated 2017)
